From patent US20260265246A1 (ICAHN SCHOOL OF MEDICINE AT MOUNT SINAI, priority 2021, published 2026)
Where two headings read alike, the source gives them in different places.

How the values were obtained:
5HT2A receptor [1] = target: T1, 5HT2A receptor (Homo sapiens, UniProt P28223); assay: biochemical; format: binding; set-up: expressed in transfected cells; crude membranes; conditions: secondary binding assay, Cheng-Prusoff
5HT2A receptor [2] = target: T1, 5HT2A receptor; assay: cell-based; set-up: expressed in transfected cells; host or cells: HEK293T cells, transient co-transfection; conditions: for Emax: HEK-293T
5HT2A receptor [3] = target: T1, 5HT2A receptor; assay: cell-based; set-up: expressed in transfected cells; host or cells: HEK293T cells, transient co-transfection; conditions: for Emax: HEK-293T; remark: listed apart in the source
[4] = 5HTA Gq EC50 (nM), BRET2 Gαq dissociation, HEK293T
[5] = read-out: 5HTA Gq Emax (%), BRET2 Gαq dissociation, HEK293T, normalized to 5-HT
[6] = 5HT2A β-Arr EC50 (nM), BRET1 beta-arrestin2 recruitment, HEK293T
[7] = read-out: 5HT2A β-Arr Emax (%), BRET1 beta-arrestin2 recruitment, HEK293T, normalized to 5-HT
[8] = BRET2 Gαq dissociation, HEK293T, read-out: 5HTA Gq EC50
[9] = BRET2 Gαq dissociation, HEK293T, normalized to 5-HT, read-out: 5HTA Gq Emax (%)
[10] = BRET1 beta-arrestin2 recruitment, HEK293T, normalized to 5-HT, read-out: 5HT2A β-Arr Emax (%)

T1 sequence (P28223 whole entry): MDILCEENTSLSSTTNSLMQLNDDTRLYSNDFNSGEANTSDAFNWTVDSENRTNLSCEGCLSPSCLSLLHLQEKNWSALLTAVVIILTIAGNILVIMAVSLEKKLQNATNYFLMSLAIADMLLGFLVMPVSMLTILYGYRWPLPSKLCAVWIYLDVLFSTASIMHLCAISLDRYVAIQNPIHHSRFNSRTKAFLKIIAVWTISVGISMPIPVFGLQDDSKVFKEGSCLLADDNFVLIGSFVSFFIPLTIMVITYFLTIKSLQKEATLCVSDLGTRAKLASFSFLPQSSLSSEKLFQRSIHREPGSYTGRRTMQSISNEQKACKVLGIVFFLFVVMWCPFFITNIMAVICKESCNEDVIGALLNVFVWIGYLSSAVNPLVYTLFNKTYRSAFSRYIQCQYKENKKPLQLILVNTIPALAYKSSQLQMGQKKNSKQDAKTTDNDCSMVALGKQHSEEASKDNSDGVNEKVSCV

SMILES | Ki (5HT2A receptor [1]; 5HT2A Ki (nM)) [nM] | EC50 (5HT2A receptor [2]; [4]) [nM] | Emax (5HT2A receptor [2]; [5]) [%] | EC50 (5HT2A receptor [3]; [6]) [nM] | Emax (5HT2A receptor [3]; [7]) [%] | EC50 (5HT2A receptor [2]; [8]) [nM] | Emax (5HT2A receptor [2]; [9]) [%] | EC50 (5HT2A receptor [3]; BRET1 beta-arrestin2 recruitment, HEK293T, read-out: 5HT2A β-Arr EC50) [nM] | Emax (5HT2A receptor [3]; [10]) [%] | Ki (5HT2A receptor [1]; read-out: 5HT2A Ki) [nM]
Clc1cccc2c(C3=CCCCNC3)n[nH]c12 [Example 208, 7-chloro-3-(2,5,6,7-tetrahydro-1H-azepin-3-yl)-1H-indazole] | > 10000 | 849 | 95.7 | 1900 | 48.9 |  |  |  |  | 
Clc1cccc2c(C3=CCNC3)c[nH]c12 [Example 209, 7-chloro-3-(2,5-dihydro-1H-pyrrol-3-yl)-1H-indole] | 160 |  |  |  |  | 8.1 | 100 | 60.7 | 88.1 | 
CN1CC=C(c2c[nH]c3c(Cl)cccc23)C1 [Example 210, 7-chloro-3-(1-methyl-2,5-dihydro-1H-pyrrol-3-yl)-1H-indole] |  |  |  | 119 |  | 33.1 | 74.9 |  | 33.6 | 86.1
CCCN1CC=C(c2n[nH]c3c(Cl)cccc23)C1 [Example 213, 7-chloro-3-(1-propyl-2,5-dihydro-1H-pyrrol-3-yl)-1H-indazole] | 1770 |  |  | 211 |  | 72.7 | 61.3 |  | 31.5 | 
Clc1cccc2c(-c3cncnc3)n[nH]c12 [Example 216, 7-chloro-3-(pyrimidin-5-yl)-1H-indazole] | 4390 | 27.5 |  | 729 |  |  | 85.1 |  | 53.8 | 
CC(C)N1CC=C(c2n[nH]c3c(Cl)cccc23)C1 [Example 219, 7-chloro-3-(1-isopropyl-2,5-dihydro-1H-pyrrol-3-yl)-1H-indazole] | 313 |  |  | 537 |  | 25.5 | 55.5 |  | 71.9 | 
Clc1cccc2c(C3=CC4CCC(C3)N4)n[nH]c12 (centres unmarked) [Example 221, 3-(8-azabicyclo[3.2.1]oct-2-en-3-yl)-7-chloro-1H-indazole] | 1400 | 108 |  | 1320 |  |  | 59.3 |  | 66.9 | 
Cc1cccc2c(C34CCNCC3C4)n[nH]c12 (centres unmarked) [Example 226, 3-(3-azabicyclo[4.1.0]heptan-6-yl)-7-methyl-1H-indazole] | 4630 | 1350 |  | 2000 |  |  | 91 |  | 52.1 | 
Fc1cccc2c(C34CCNCC3C4)n[nH]c12 (centres unmarked) [Example 229, 3-(3-azabicyclo[4.1.0]heptan-6-yl)-7-fluoro-1H-indazole] | 1900 | 236 |  | 2070 |  |  | 83.7 |  | 90.2 | 
Cc1cccc2c(N3CCNCC3)n[nH]c12 [Example 230, 7-methyl-3-(piperazin-1-yl)-1H-indazole] | 715 | 248 |  | 917 |  |  | 66.1 |  | 45.3 | 
Fc1cc(Cl)c2[nH]nc(N3CCNCC3)c2c1 [Example 232, 7-chloro-5-fluoro-3-(piperazin-1-yl)-1H-indazole] | 1540 | 170 |  | 1970 |  |  | 48.4 |  | 29 | 
CCCN1CCC=C(c2n[nH]c3c(CC)cccc23)C1 [Example 237, 7-ethyl-3-(1-propyl-1,2,5,6-tetrahydropyridin-3-yl)-1H-indazole] | 389 |  |  | 1580 |  | 33.6 | 37.7 |  | 39.8 | 
CCc1cccc2c(C3=CCCN(C4CC4)C3)n[nH]c12 [Example 238, 3-(1-cyclopropyl-1,2,5,6-tetrahydropyridin-3-yl)-7-ethyl-1H-indazole] | 634 | 101 |  | 1020 |  |  | 42.2 |  | 50 | 
CCCc1cccc2c(C3=CCCN(CC)C3)c[nH]c12 [Example 245, 3-(1-ethyl-1,2,5,6-tetrahydropyridin-3-yl)-7-propyl-1H-indole] | 600 | 392 | 87.5 | 1300 | 44.8 |  |  |  |  | 
COC1(c2c[nH]c3c(Cl)cccc23)CNC1 [Example 254, 7-chloro-3-(3-methoxyazetidin-3-yl)-1H-indole] | 1080 | 294 |  | 1460 |  |  | 88.3 |  | 77.6 | 
Clc1cccc2c(C3CNC3)c[nH]c12 [Example 255, 3-(azetidin-3-yl)-7-chloro-1H-indole] | 159 | 68.2 | 81.1 | 302 | 42.3 |  |  |  |  | 
CN1CC(c2c[nH]c3c(Cl)cccc23)C1 [Example 256, 7-chloro-3-(1-methylazetidin-3-yl)-1H-indole] | 2010 | 367 |  | 1000 |  |  | 97.5 |  | 31.7 | 
C=CCc1cccc2c(C3=CCCN(C)C3)c[nH]c12 [Example 257, 7-allyl-3-(1-methyl-1,2,5,6-tetrahydropyridin-3-yl)-1H-indole] |  |  |  | 105 |  | 44.9 | 90.7 |  | 52.1 | 97
Cc1cccc2c(C3CN(C)C3)c[nH]c12 [Example 261, 7-methyl-3-(1-methylazetidin-3-yl)-1H-indole] | 1680 | 196 |  | 1650 |  |  | 69.3 |  | 26.1 | 
Clc1cc(Br)cc2c(C3CNC3)c[nH]c12 [Example 267, 3-(azetidin-3-yl)-5-bromo-7-chloro-1H-indole] | 175 | 949 |  | 1050 |  |  | 64 |  | 20.8 | 
Clc1cccc2c(C34CNCCC3C4)c[nH]c12 (centres unmarked) [Example 269, 3-(3-azabicyclo[4.1.0]heptan-1-yl)-7-chloro-1H-indole] | 743 | 257 | 88.8 | 1380 | 30 |  |  |  |  | 
Clc1cccc2c(C34CNCC3C4)c[nH]c12 (centres unmarked) [Example 270, 3-(3-azabicyclo[3.1.0]hexan-1-yl)-7-chloro-1H-indole] | 134 |  |  | 822 |  | 29.8 | 93.8 |  | 21.2 | 
Cc1cccc2c(C34CNCC3C4)c[nH]c12 (centres unmarked) [Example 272, 3-(3-azabicyclo[3.1.0]hexan-1-yl)-7-methyl-1H-indole] | 890 | 100 |  | 1500 |  |  | 89.5 |  | 38 | 
Fc1cc(Cl)c2[nH]cc(C34CNCC3C4)c2c1 (centres unmarked) [Example 279, 3-(3-azabicyclo[3.1.0]hexan-1-yl)-7-chloro-5-fluoro-1H-indole] | 75.2 | 110 | 98.6 | 380 | 60.9 |  |  |  |  | 
Fc1ccc2c(C34CNCC3C4)c[nH]c2c1Cl (centres unmarked) [Example 280, 3-(3-azabicyclo[3.1.0]hexan-1-yl)-7-chloro-6-fluoro-1H-indole] | 63.8 | 38.1 | 81.6 | 256 | 55.6 |  |  |  |  | 
Fc1ccc2c(C34CNCC3C4)c[nH]c2c1 (centres unmarked) [Example 281, 3-(3-azabicyclo[3.1.0]hexan-1-yl)-6-fluoro-1H-indole] |  |  |  | 369 |  | 52.1 | 66.3 |  | 27.9 | 61.9
Cc1cc(F)cc2c(C34CNCC3C4)c[nH]c12 (centres unmarked) [Example 282, 3-(3-azabicyclo[3.1.0]hexan-1-yl)-5-fluoro-7-methyl-1H-indole] | 257 | 165 | 96.8 | 1280 | 44.8 |  |  |  |  | 
Cc1c(F)ccc2c(C34CNCC3C4)c[nH]c12 (centres unmarked) [Example 283, 3-(3-azabicyclo[3.1.0]hexan-1-yl)-6-fluoro-7-methyl-1H-indole] | 141 | 88.2 | 104 | 797 | 41.5 |  |  |  |  | 
